PubChem BioAssay (NCI)
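Grown in 96-well plates, cells were treated for 48 hours with each compound at five concentrations. Insufficient inhibition: endpoint recorded as highest concentration tested. GI50 = concentration required for 50% inhibition of growth. TGI is the concentration that stops growth completely.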

Experiments:
Assay in all cases: NCI-60 cell line screen, 48 h
COLO 205 colon = tested on: COLO 205 colon
UO-31 renal = tested on: UO-31 renal
SK-OV-3 ovarian = tested on: SK-OV-3 ovarian
PC-3 prostate = tested on: PC-3 prostate
NCI-H23 lung = tested on: NCI-H23 lung
UACC-62 melanoma = tested on: UACC-62 melanoma
CCRF-CEM leukemia = tested on: CCRF-CEM leukemia
K-562 leukemia = tested on: K-562 leukemia
NCI-H226 lung = tested on: NCI-H226 lung
ACHN renal = tested on: ACHN renal
MALME-3M melanoma = tested on: MALME-3M melanoma
A498 renal = tested on: A498 renal
SF-539 CNS = tested on: SF-539 CNS
A549 NSCLC = tested on: A549 NSCLC
BT-549 breast = tested on: BT-549 breast
SK-MEL-28 melanoma = tested on: SK-MEL-28 melanoma
SF-268 CNS = tested on: SF-268 CNS
NCI/ADR-RES ovarian = tested on: NCI/ADR-RES ovarian
HOP-92 NSCLC = tested on: HOP-92 NSCLC
RPMI-8226 leukemia = tested on: RPMI-8226 leukemia
SK-MEL-2 melanoma = tested on: SK-MEL-2 melanoma
NCI-H522 lung = tested on: NCI-H522 lung
HS 578T breast = tested on: HS 578T breast
LOX IMVI melanoma = tested on: LOX IMVI melanoma
SNB-75 CNS = tested on: SNB-75 CNS
DU-145 prostate = tested on: DU-145 prostate
HT29 colon = tested on: HT29 colon
SR leukemia = tested on: SR leukemia
M14 melanoma = tested on: M14 melanoma
MCF7 breast = tested on: MCF7 breast
OVCAR-8 ovarian = tested on: OVCAR-8 ovarian
OVCAR-4 ovarian = tested on: OVCAR-4 ovarian
CAKI-1 renal = tested on: CAKI-1 renal
HCC-2998 colon = tested on: HCC-2998 colon
IGROV1 ovarian = tested on: IGROV1 ovarian
SNB-19 CNS = tested on: SNB-19 CNS
HCT-15 colon = tested on: HCT-15 colon
UACC-257 melanoma = tested on: UACC-257 melanoma
MOLT-4 leukemia = tested on: MOLT-4 leukemia
HL-60(TB) leukemia = tested on: HL-60(TB) leukemia
U251 CNS = tested on: U251 CNS
786-0 renal = tested on: 786-0 renal
MDA-MB-435 = tested on: MDA-MB-435
SW-620 colon = tested on: SW-620 colon
SN12C renal = tested on: SN12C renal
TK-10 renal = tested on: TK-10 renal
SF-295 CNS = tested on: SF-295 CNS
OVCAR-5 ovarian = tested on: OVCAR-5 ovarian
HCT-116 colon = tested on: HCT-116 colon
KM12 colon = tested on: KM12 colon
HOP-62 NSCLC = tested on: HOP-62 NSCLC
MDA-MB-231 breast = tested on: MDA-MB-231 breast
T-47D breast = tested on: T-47D breast
NCI-H460 lung = tested on: NCI-H460 lung

For `CC(C)(C)c1[nH]nc2c1C(c1cc3ccccc3[nH]c1=O)Nc1cc(C(=O)OCc3ccccc3)ccc1N2` (stereo not drawn), the GI50 (COLO 205 colon) was 3.54 µM, the TGI (COLO 205 colon) was 10.4 µM and the GI50 (UO-31 renal) was 3.42 µM. For the same compound, the TGI (UO-31 renal) was > 100 µM, the GI50 (SK-OV-3 ovarian) was 3.27 µM and the TGI (SK-OV-3 ovarian) was 8.73 µM. For the same compound, the GI50 (PC-3 prostate) was 2.7 µM, the TGI (PC-3 prostate) was > 100 µM and the GI50 (NCI-H23 lung) was 5.14 µM. The TGI (NCI-H23 lung) was > 100 µM, the GI50 (UACC-62 melanoma) was 1.9 µM and the TGI (UACC-62 melanoma) was 3.9 µM. For the same compound, the GI50 (CCRF-CEM leukemia) was 3.23 µM, the TGI (CCRF-CEM leukemia) was > 100 µM and the GI50 (K-562 leukemia) was 4.18 µM. The TGI (K-562 leukemia) was > 100 µM, the GI50 (NCI-H226 lung) was 3.2 µM and the TGI (NCI-H226 lung) was > 100 µM. The GI50 (ACHN renal) was 4.25 µM, the TGI (ACHN renal) was > 100 µM and the GI50 (MALME-3M melanoma) was 2.49 µM. The TGI (MALME-3M melanoma) was 7.47 µM, the GI50 (A498 renal) was 3.73 µM and the TGI (A498 renal) was 81.9 µM. The GI50 (SF-539 CNS) was 4.56 µM, the TGI (SF-539 CNS) was > 100 µM and the GI50 (A549 NSCLC) was 3.33 µM. The TGI (A549 NSCLC) was > 100 µM, the GI50 (BT-549 breast) was 3.35 µM and the TGI (BT-549 breast) was > 100 µM. For the same compound, the GI50 (SK-MEL-28 melanoma) was 2.44 µM, the TGI (SK-MEL-28 melanoma) was 6.43 µM and the GI50 (SF-268 CNS) was 4.82 µM. For the same compound, the TGI (SF-268 CNS) was > 100 µM, the GI50 (NCI/ADR-RES ovarian) was > 100 µM and the TGI (NCI/ADR-RES ovarian) was > 100 µM. It also gave a GI50 (HOP-92 NSCLC) of 1.35 µM, a TGI (HOP-92 NSCLC) of 8.34 µM and a GI50 (RPMI-8226 leukemia) of 2.71 µM. For the same compound, the TGI (RPMI-8226 leukemia) was > 100 µM, the GI50 (SK-MEL-2 melanoma) was 3.33 µM and the TGI (SK-MEL-2 melanoma) was 7.28 µM. For the same compound, the GI50 (NCI-H522 lung) was 3.11 µM, the TGI (NCI-H522 lung) was 8.78 µM and the GI50 (HS 578T breast) was 7.45 µM. The TGI (HS 578T breast) was > 100 µM, the GI50 (LOX IMVI melanoma) was 3.35 µM and the TGI (LOX IMVI melanoma) was > 100 µM. For the same compound, the GI50 (SNB-75 CNS) was 4.37 µM, the TGI (SNB-75 CNS) was > 100 µM and the GI50 (DU-145 prostate) was 6.04 µM. For the same compound, the TGI (DU-145 prostate) was > 100 µM, the GI50 (HT29 colon) was 2.75 µM and the TGI (HT29 colon) was 6.52 µM. For the same compound, the GI50 (SR leukemia) was 3.52 µM, the TGI (SR leukemia) was > 100 µM and the GI50 (M14 melanoma) was 4.28 µM. For the same compound, the TGI (M14 melanoma) was > 100 µM, the GI50 (MCF7 breast) was 3.37 µM and the TGI (MCF7 breast) was > 100 µM. For the same compound, the GI50 (OVCAR-8 ovarian) was 5.5 µM, the TGI (OVCAR-8 ovarian) was > 100 µM and the GI50 (OVCAR-4 ovarian) was 4.12 µM. The TGI (OVCAR-4 ovarian) was > 100 µM, the GI50 (CAKI-1 renal) was 8.75 µM and the TGI (CAKI-1 renal) was > 100 µM. For the same compound, the GI50 (HCC-2998 colon) was 4.08 µM, the TGI (HCC-2998 colon) was > 100 µM and the GI50 (IGROV1 ovarian) was 4.32 µM. The TGI (IGROV1 ovarian) was > 100 µM, the GI50 (SNB-19 CNS) was 3.28 µM and the TGI (SNB-19 CNS) was > 100 µM. The GI50 (HCT-15 colon) was 4.65 µM, the TGI (HCT-15 colon) was > 100 µM and the GI50 (UACC-257 melanoma) was 2.71 µM. For the same compound, the TGI (UACC-257 melanoma) was > 100 µM, the GI50 (MOLT-4 leukemia) was 3.3 µM and the TGI (MOLT-4 leukemia) was 44.1 µM. For the same compound, the GI50 (HL-60(TB) leukemia) was 3.66 µM, the TGI (HL-60(TB) leukemia) was > 100 µM and the GI50 (U251 CNS) was 3.41 µM. For the same compound, the TGI (U251 CNS) was > 100 µM, the GI50 (786-0 renal) was 3.41 µM and the TGI (786-0 renal) was > 100 µM. For the same compound, the GI50 (MDA-MB-435) was 2.95 µM, the TGI (MDA-MB-435) was > 100 µM and the GI50 (SW-620 colon) was 3.53 µM. For the same compound, the TGI (SW-620 colon) was > 100 µM, the GI50 (SN12C renal) was 3.77 µM and the TGI (SN12C renal) was > 100 µM. For the same compound, the GI50 (TK-10 renal) was 3.83 µM, the TGI (TK-10 renal) was 19.6 µM and the GI50 (SF-295 CNS) was 3.17 µM. For the same compound, the TGI (SF-295 CNS) was 38.5 µM, the GI50 (OVCAR-5 ovarian) was 4.05 µM and the TGI (OVCAR-5 ovarian) was > 100 µM. For the same compound, the GI50 (HCT-116 colon) was 3.2 µM, the TGI (HCT-116 colon) was > 100 µM and the GI50 (KM12 colon) was 2.83 µM. The TGI (KM12 colon) was 7.34 µM, the GI50 (HOP-62 NSCLC) was 6.37 µM and the TGI (HOP-62 NSCLC) was > 100 µM. For the same compound, the GI50 (MDA-MB-231 breast) was 5.91 µM, the TGI (MDA-MB-231 breast) was > 100 µM and the GI50 (T-47D breast) was 4.08 µM. The TGI (T-47D breast) was > 100 µM, the GI50 (NCI-H460 lung) was 3.14 µM and the TGI (NCI-H460 lung) was > 100 µM.
